Data reported in patent publication US20170340629A1 (AB SCIENCE, priority 2014, published 2017).
Where a name gives a salt, the structure may show the parent alone. Read-outs that look alike come from different tables or passages of the source.

Experiments:
MDAMB134 = assay: WST-1 proliferation/viability assay, MDAMB134; type: cell-based, human; settings: 72 h, 1% FCS
Description: (§1) Breast cancer cell lines (generous gift from Dr. […], UMR 599 INSERM, Marseille, France) were cultured as monolayers in RPMI 1640 medium, containing L-glutamine supplemented with 100 U/mL penicillin and 100 μg/mL streptomycin, and 10% v/v heat-inactivated fetal calf serum (AbCys Lot S02823S1800) under standard culture conditions (5% CO2, 95% air in humidified chamber at 37° C.). During proliferation assay, all cells were grown in medium containing 1% FCS. Colorimetric cell proliferation and viability assay (reagent WST-1 purchased from Roche cat N^o 1644807)-Cells were washed once and resuspended in RPMI 1% FCS. Cells were plated at 1×10^4/50 μl per well of a 96 well plate. […] Treatment was started by the addition of 50 μl of a 2× concentrated drug solution to a final volume of 100 μl. […] After incubating for 72 hours at 37° C., 10 μl of a 1⁄2 dilution of WST-1 reagent was added to each well and the plates were returned to the incubator for an additional 4 hours. The absorbance of the samples was measured at 490 nm using an EL800 Universal microplate reader (Bio-Tek Instruments Inc.). A background control without cells was used as a blank. The positive control of the assay corresponds to the cell proliferation obtained in the absence of drug treatment (100% proliferation). Each sample was done in duplicate, the absorbance values were transferred to an excel file, the average and standard deviation of the duplicates were calculated and expressed as a percentage of the proliferation obtained in absence of treatment. The results presented are representative of a minimum of four experiments.

MDAMB231 = assay: WST-1 proliferation/viability assay, MDAMB231; type: cell-based, human; settings: 72 h, 1% FCS
Description: as §1

BT474 = assay: WST-1 proliferation/viability assay, BT474; type: cell-based, human; settings: 72 h, 1% FCS
Description: as §1, with “The positive control of the assay corresponds to the cell proliferation obtained in the absence of drug treatment (100% proliferation).” left out, “The results presented are representative of a minimum of four experiments.” left out

MCF-7 = assay: WST-1 proliferation/viability assay, MCF-7; type: cell-based; settings: Homo sapiens, 72 h, 1% FCS
Description: as §1, with “The positive control of the assay corresponds to the cell proliferation obtained in the absence of drug treatment (100% proliferation).” left out, “The results presented are representative of a minimum of four experiments.” left out

[1] = test system: TNBC (metastatic or locally advanced); settings: cisplatin alone (N = 58); Baselga et al. 2013; cited from earlier work
HCC1937 = assay: WST-1 proliferation/viability assay, HCC1937; type: cell-based; settings: Homo sapiens, doxorubicin single agent, 72 h, 1% FCS
Description: as §1, with “The positive control of the assay corresponds to the cell proliferation obtained in the absence of drug treatment (100% proliferation).” left out, “The results presented are representative of a minimum of four experiments.” left out

Mia Paca-2 cells = assay: WST-1 proliferation/survival assay, gemcitabine-resistant Mia Paca-2; type: cell-based; settings: for IC50: Homo sapiens, 72 hours, 1% FCS, read-out: IC50 single agent; for sensitization of cells to gemcitabine by TKI pre-incubation: TKI 5 or 10 μM overnight before gemcitabine, FIG. 2; for cell proliferation, single agent: TKI 10 μM
Description: The antiproliferative activity of each TKI and gemcitabine is assessed using a WST-1 proliferation/survival assay in growth medium containing 1% fetal calf serum (FCS). Treatment is started with the addition of the relevant drug. For combination treatment (TKI plus gemcitabine), cells are re-suspended in medium (1% FCS) containing 0, 5 or 10 μM of the relevant TKI and incubated overnight before gemcitabine addition. After 72 hours, WST-1 reagent is added and incubated with the cells for 4 hours before absorbance measurement at 450 nm in an EL800 Universal Microplate Reader (Bio-Tek Instruments Inc.). Media alone is used as a blank and proliferation in the absence of drug served as a positive control. A TKI sensitization index is calculated as the ratio of the IC50 of gemcitabine against the IC50 of the drug combination.

BT20 = assay: WST-1 proliferation/viability assay, BT20; type: cell-based; settings: Homo sapiens, BT-20, gemcitabine single agent, 72 h, 1% FCS
Description: as §1, with “The positive control of the assay corresponds to the cell proliferation obtained in the absence of drug treatment (100% proliferation).” left out, “The results presented are representative of a minimum of four experiments.” left out

[2] = test system: relapsed or refractory inflammatory breast cancer; settings: lapatinib 1500 mg/day; 126 patients; Kaufman et al. 2009; cited from earlier work
breast cancer cell lines = assay: WST-1 proliferation assay, masitinib mesilate single agent; type: cell-based; settings: Homo sapiens, 1% FCS
Description: Breast cancer cell lines (generous gift from Dr. […], UMR 599 INSERM, Marseille, France) were cultured as monolayers in RPMI 1640 medium, containing L-glutamine supplemented with 100 U/mL penicillin and 100 μg/mL streptomycin, and 10% v/v heat-inactivated fetal calf serum (AbCys Lot S02823S1800) under standard culture conditions (5% CO2, 95% air in humidified chamber at 37° C.). During proliferation assay, all cells were grown in medium containing 1% FCS. Colorimetric cell proliferation and viability assay (reagent WST-1 purchased from Roche cat N^o 1644807)-Cells were washed once and resuspended in RPMI 1% FCS. Cells were plated at 1×10^4/50 μl per well of a 96 well plate. […] Treatment was started by the addition of 50 μl of a 2× concentrated drug solution to a final volume of 100 μl. […] The absorbance of the samples was measured at 490 nm using an EL800 Universal microplate reader (Bio-Tek Instruments Inc.). […] Each sample was done in duplicate, the absorbance values were transferred to an excel file, the average and standard deviation of the duplicates were calculated and expressed as a percentage of the proliferation obtained in absence of treatment. […] Breast cancer cell lines were first analyzed for their sensitivity to masitinib mesilate when used as single agent.

[3] = test system: CMT-U27 canine mammary carcinoma cell line; assay: MTT proliferation assay and combination index, CMT-U27; type: cell-based; settings: for IC50: single agent, read-out: IC50 growth inhibitory activity
Description: (§2) Two canine mammary tumor (CMT) cell lines were evaluated, CMT-U27 and CMT-U309. CMT-U27 is a highly metastatic canine mammary carcinoma cell line while CMT-U309 is a non-metastatic spindle-cell cell line. Cell lines were maintained in Dulbecco's modified Eagles Medium-F12 supplemented with 10% fetal bovine serum and antimicrobials (penicillin [100 U/mL] and streptomycin [0.1 mg/mL]). Cell lines were maintained in a humidified atmosphere of 5% carbon dioxide at 37° C.
(§3) Solutions were prepared newly prepared from the stock solution for each experiment.
(§4) Cells were seeded at a density of 1.0×10^4 cells/well (final volume, 100 μL/well) in three replicates. […] At the end of treatment, 10 μl of MTT solution (5 mg/ml in PBS) was added to each well. The plates were incubated for 4 hours in a humidified atmosphere at 37° C. with 5% CO2. After that incubation, cell proliferation was assessed by use of a commercial cell proliferation MTT [3-(4,5-dimethylthiazol-2-yl)-2,5-diphenyltrazolium bromide] kit. All samples were assayed in triplicate, and the mean for each experiment was calculated. The effect of each compound on growth inhibition was assessed as percent cell viability where vehicle-treated cells were taken as 100% viable. Cell proliferation was expressed as a percentage of the control wells by use of the following equation: (absorbance of sample wells/absorbance of control wells)×100. The mean of triplicate experiments for each dose was used to calculate IC50 as determined by CalcuSyn software.

[4] = test system: CMT-U309 canine mammary tumor cell line; assay: MTT proliferation assay and combination index, CMT-U309; settings: for Viability (%): 72 hours incubation, doses at single-agent IC50 concentrations; for IC50: single agent
Description: as §2, §3, §4

[5] = test system: metastatic or locally advanced breast cancer (except triple negative); settings: patients resistant to at least one first-line chemotherapy; literature (Miller 2005; Brodowicz 2000); cited from earlier work
[6] = carboplatin single agent, read-out: IC50 CPT
[7] = Canis lupus familiaris, 24 h, read-out: IC50 growth inhibitory activity, CMT-U309, 24 h
[8] = Canis lupus familiaris, 48 h, read-out: IC50 growth inhibitory activity, CMT-U309, 48 h
[9] = Canis lupus familiaris, 72 h, read-out: IC50 growth inhibitory activity, CMT-U309, 72 h

N.N.O=C([O-])C1(C(=O)[O-])CCC1.[Pt+2] [CPT, carboplatin]
IC50 (MDAMB134; [6]): > 100 µM | IC50 (MDAMB231; [6]): > 100 µM | IC50 (BT474; [6]): > 100 µM

CCc1c2c(nc3ccc(OC(=O)N4CCC(N5CCCCC5)CC4)cc13)-c1cc3c(c(=O)n1C2)COC(=O)[C@]3(O)CC [CPT-11, irinotecan]
IC50 (MDAMB134; Homo sapiens, irinotecan single agent, read-out: IC50 CPT-11): 30 µM | IC50 (MDAMB231; Homo sapiens, MDA-MB-231, irinotecan single agent, read-out: IC50 CPT-11): 30 µM | IC50 (MCF-7; MCF7, irinotecan single agent, read-out: IC50 CPT-11): 100 µM

N.N.[Cl][Pt][Cl] [Cisplatin, cisplatin]
Median OS (months) [1]: 9.4 months

COc1cccc2c1C(=O)c1c(O)c3c(c(O)c1C2=O)C[C@@](O)(C(=O)CO)C[C@@H]3O[C@H]1C[C@H](N)[C@H](O)[C@H](C)O1 [DOX, doxorubicin]
IC50 (MDAMB134; Homo sapiens, doxorubicin single agent, read-out: IC50 DOX): 1 µM | IC50 (MDAMB231; Homo sapiens, MDA-MB-231, doxorubicin single agent, read-out: IC50 DOX): 1 µM | IC50 (HCC1937): 1000 nM | IC50 (MCF-7; MCF7, doxorubicin single agent, read-out: IC50 DOX): 1 µM

Nc1ccn([C@@H]2O[C@H](CO)[C@@H](O)C2(F)F)c(=O)n1 [GCB, 2′,2′,-dofluoro-2′,-deoxycytidine]
IC50 (MDAMB134; Homo sapiens, gemcitabine single agent, read-out: IC50 GCB): 100 µM | IC50 (MDAMB231; Homo sapiens, MDA-MB-231, gemcitabine single agent, read-out: IC50 GCB): 100 µM | IC50 (Mia Paca-2 cells): > 10 µM | IC50 (BT474; Homo sapiens, BT-474, gemcitabine single agent, read-out: IC50 GCB): 100 µM | IC50 (BT20): 50 µM

CS(=O)(=O)CCNCc1ccc(-c2ccc3ncnc(Nc4ccc(OCc5cccc(F)c5)c(Cl)c4)c3c2)o1 [Lapatinib, lapatinib]
Median overall survival [2]: 11.2 months

Cc1ccc(NC(=O)c2ccc(CN3CCN(C)CC3)cc2)cc1Nc1nc(-c2cccnc2)cs1 [Masitinib mesilate]
IC50 (breast cancer cell lines): > 6 µM

Cc1ccc(NC(=O)c2ccc(CN3CCN(C)CC3)cc2)cc1Nc1nc(-c2cccnc2)cs1 [Masitinib, 4-(4-methylpiperazin-1-ylmethyl)-N-[4-methyl-3-(4-pyridin-3ylthiazol-2-ylamino)phenyl]benzamide]
IC50 ([3]; 72 h): 7.5 µM | Viability (%) ([3]; 72 hours incubation, doses at single-agent IC50 concentrations): 77.3% | IC50 ([3]; Canis lupus familiaris, 24 h): 9.13 µM | IC50 ([3]; Canis lupus familiaris, 48 h): 7.61 µM | IC50 ([3]; Canis lupus familiaris, 72 h): 7.5 µM | Viability (%) ([4]; CMT-U309): 66.0% | IC50 [4, 7]: 15 µM | IC50 [4, 8]: 8.87 µM | IC50 [4, 9]: 8.5 µM | IC50 ([4]; read-out: IC50 growth inhibitory activity, CMT-U309, 72 h): 8.54 µM | IC50 (Mia Paca-2 cells): 5 to 10 µM | sensitization of cells to gemcitabine by TKI pre-incubation (Mia Paca-2 cells): significantly sensitized | cells remaining resistant (Mia Paca-2 cells; masitinib concentration of 10 μM, FIG. 1): more than 50%

O=C1c2c(O)ccc(O)c2C(=O)c2c(NCCNCCO)ccc(NCCNCCO)c21 [Mitoxantrone, Mitoxantrone dihydrochloride]
IC50 ([3]; 72 h, listed as Mixoxantrone, dihydrochloride): 0.219 µM | IC50 ([3]; Canis lupus familiaris, 24 h): 3.09 µM | IC50 ([3]; Canis lupus familiaris, 48 h): 1.11 µM | IC50 ([3]; Canis lupus familiaris, 72 h): 0.22 µM | Viability (%) ([4]; CMT-U309): 56.8% | IC50 [4, 7]: 2.77 µM | IC50 [4, 8]: 1 µM | IC50 [4, 9]: 0.75 µM | IC50 ([4]; read-out: IC50 growth inhibitory activity, CMT-U309, 72 h, dihydrochloride): 0.751 µM

CCCCCOC(=O)Nc1nc(=O)n([C@@H]2O[C@H](C)[C@@H](O)[C@H]2O)cc1F [capecitabine]
Median OS (months), benchmark single agent (L2) [5]: 14.5 months

Cc1nc(Nc2ncc(C(=O)Nc3c(C)cccc3Cl)s2)cc(N2CCN(CCO)CC2)n1 [dasatinib]
cell proliferation, single agent (Mia Paca-2 cells; FIG. 1): affected by a similar extent | sensitization of cells to gemcitabine by TKI pre-incubation (Mia Paca-2 cells): does not result in an increased response | cell proliferation at low concentrations (Mia Paca-2 cells; concentrations superior to 0.1 μM): partial inhibition

Cc1ccc(NC(=O)c2ccc(CN3CCN(C)CC3)cc2)cc1Nc1nccc(-c2cccnc2)n1 [imatinib]
cell proliferation, single agent (Mia Paca-2 cells; FIG. 1): only weakly inhibited | sensitization of cells to gemcitabine by TKI pre-incubation (Mia Paca-2 cells): does not result in an increased response
